{
  "source": "paper PMC7523345",
  "about": "(Investigational new drugs, 2018)",
  "experiment": "Phase I dose escalation study: safety, tolerability, DLT and MTD",
  "type": "in vivo",
  "note": "Entries after “also recorded” stand apart in the source; their conditions may differ.",
  "data": [
    {"compound": "Cc1cccc2c1NC(=O)[C@@H](NC(=O)[C@H](CCC(F)(F)F)[C@H](CCC(F)(F)F)C(N)=O)N=C2c1cccc(F)c1", "note": "[BMS-986115]", "values": [
      {"measurement": "Rash maculopapular (drug related AE, all grades)", "setting": "Arm A QD 0.6 mg (N = 2)", "value": "0 n (%)"},
      {"measurement": "Sinusitis (drug related AE, all grades)", "setting": "Arm A QD 0.6 mg (N = 2)", "value": "0 n (%)"},
      {"measurement": "Urticaria (drug related AE, Grade 3 and 4)", "setting": "Arm A QD 0.6 mg (N = 2)", "value": "0 n (%)"},
      {"measurement": "Vision blurred (drug related AE, all grades)", "setting": "Arm A QD 0.6 mg (N = 2)", "value": "0 n (%)"},
      {"measurement": "Vomiting (drug related AE, Grade 3 and 4)", "setting": "Arm A QD 0.6 mg (N = 2)", "value": "0 n (%)"},
      {"measurement": "Vomiting (drug related AE, all grades)", "setting": "Arm A QD 0.6 mg (N = 2)", "value": "1 (50) n (%)"},
      {"measurement": "Weight decreased (drug related AE, all grades)", "setting": "Arm A QD 0.6 mg (N = 2)", "value": "0 n (%)"},
      {"measurement": "No. of patients with DLTs", "setting": "Arm A QD 0.6 mg, 2 DLT evaluable patients", "value": 0},
      {"measurement": "Abdominal distension (drug related AE, all grades)", "setting": "Arm A QD 1.2 mg (N = 6)", "value": "0 n (%)"},
      {"measurement": "Abdominal pain (drug related AE, Grade 3 and 4)", "setting": "Arm A QD 1.2 mg (N = 6)", "value": "0 n (%)"},
      {"measurement": "Abdominal pain (drug related AE, all grades)", "setting": "Arm A QD 1.2 mg (N = 6)", "value": "0 n (%)"},
      {"measurement": "Blood creatinine increased (drug related AE, all grades)", "setting": "Arm A QD 1.2 mg (N = 6)", "value": "0 n (%)"},
      {"measurement": "Colitis (drug related AE, Grade 3 and 4)", "setting": "Arm A QD 1.2 mg (N = 6)", "value": "1 (17) n (%)"},
      {"measurement": "Cough (drug related AE, Grade 3 and 4)", "setting": "Arm A QD 1.2 mg (N = 6)", "value": "0 n (%)"},
      {"measurement": "Cough (drug related AE, all grades)", "setting": "Arm A QD 1.2 mg (N = 6)", "value": "0 n (%)"},
      {"measurement": "Decreased Appetite (drug related AE, Grade 3 and 4)", "setting": "Arm A QD 1.2 mg (N = 6)", "value": "0 n (%)"},
      {"measurement": "Decreased Appetite (drug related AE, all grades)", "setting": "Arm A QD 1.2 mg (N = 6)", "value": "2 (33) n (%)"},
      {"measurement": "Dehydration (drug related AE, Grade 3 and 4)", "setting": "Arm A QD 1.2 mg (N = 6)", "value": "0 n (%)"},
      {"measurement": "Dehydration (drug related AE, all grades)", "setting": "Arm A QD 1.2 mg (N = 6)", "value": "2 (33) n (%)"},
      {"measurement": "Dermatitis acneiform (drug related AE, all grades)", "setting": "Arm A QD 1.2 mg (N = 6)", "value": "0 n (%)"},
      {"measurement": "Diarrhoea (drug related AE, Grade 3 and 4)", "setting": "Arm A QD 1.2 mg (N = 6)", "value": "1 (17) n (%)"},
      {"measurement": "Diarrhoea (drug related AE, all grades)", "setting": "Arm A QD 1.2 mg (N = 6)", "value": "6 (100) n (%)"},
      {"measurement": "Dry mouth (drug related AE, all grades)", "setting": "Arm A QD 1.2 mg (N = 6)", "value": "1 (17) n (%)"},
      {"measurement": "Dry skin (drug related AE, all grades)", "setting": "Arm A QD 1.2 mg (N = 6)", "value": "1 (17) n (%)"},
      {"measurement": "Dysgeusia (drug related AE, all grades)", "setting": "Arm A QD 1.2 mg (N = 6)", "value": "2 (33) n (%)"},
      {"measurement": "Dyspepsia (drug related AE, all grades)", "setting": "Arm A QD 1.2 mg (N = 6)", "value": "1 (17) n (%)"},
      {"measurement": "Dysphonia (drug related AE, all grades)", "setting": "Arm A QD 1.2 mg (N = 6)", "value": "0 n (%)"},
      {"measurement": "Fatigue (drug related AE, Grade 3 and 4)", "setting": "Arm A QD 1.2 mg (N = 6)", "value": "0 n (%)"},
      {"measurement": "Fatigue (drug related AE, all grades)", "setting": "Arm A QD 1.2 mg (N = 6)", "value": "2 (33) n (%)"},
      {"measurement": "Flatulence (drug related AE, all grades)", "setting": "Arm A QD 1.2 mg (N = 6)", "value": "0 n (%)"},
      {"measurement": "Hypocalcaemia (drug related AE, Grade 3 and 4)", "setting": "Arm A QD 1.2 mg (N = 6)", "value": "0 n (%)"},
      {"measurement": "Hypocalcaemia (drug related AE, all grades)", "setting": "Arm A QD 1.2 mg (N = 6)", "value": "0 n (%)"},
      {"measurement": "Hypokalaemia (drug related AE, Grade 3 and 4)", "setting": "Arm A QD 1.2 mg (N = 6)", "value": "1 (17) n (%)"},
      {"measurement": "Hypokalaemia (drug related AE, all grades)", "setting": "Arm A QD 1.2 mg (N = 6)", "value": "3 (50) n (%)"},
      {"measurement": "Hyponatraemia (drug related AE, Grade 3 and 4)", "setting": "Arm A QD 1.2 mg (N = 6)", "value": "0 n (%)"},
      {"measurement": "Hyponatraemia (drug related AE, all grades)", "setting": "Arm A QD 1.2 mg (N = 6)", "value": "0 n (%)"},
      {"measurement": "Hypophosphataemia (drug related AE, Grade 3 and 4)", "setting": "Arm A QD 1.2 mg (N = 6)", "value": "2 (33) n (%)"},
      {"measurement": "Hypophosphataemia (drug related AE, all grades)", "setting": "Arm A QD 1.2 mg (N = 6)", "value": "6 (100) n (%)"},
      {"measurement": "Ileus (drug related AE, Grade 3 and 4)", "setting": "Arm A QD 1.2 mg (N = 6)", "value": "0 n (%)"},
      {"measurement": "Increased upper airway secretion (drug related AE, all grades)", "setting": "Arm A QD 1.2 mg (N = 6)", "value": "0 n (%)"},
      {"measurement": "Laryngeal pain (drug related AE, all grades)", "setting": "Arm A QD 1.2 mg (N = 6)", "value": "0 n (%)"},
      {"measurement": "Leucocytosis (drug related AE, Grade 3 and 4)", "setting": "Arm A QD 1.2 mg (N = 6)", "value": "0 n (%)"},
      {"measurement": "Mouth ulceration (drug related AE, all grades)", "setting": "Arm A QD 1.2 mg (N = 6)", "value": "1 (17) n (%)"},
      {"measurement": "Nausea (drug related AE, Grade 3 and 4)", "setting": "Arm A QD 1.2 mg (N = 6)", "value": "0 n (%)"},
      {"measurement": "Nausea (drug related AE, all grades)", "setting": "Arm A QD 1.2 mg (N = 6)", "value": "4 (67) n (%)"},
      {"measurement": "Pruritus (drug related AE, Grade 3 and 4)", "setting": "Arm A QD 1.2 mg (N = 6)", "value": "0 n (%)"},
      {"measurement": "Pruritus (drug related AE, all grades)", "setting": "Arm A QD 1.2 mg (N = 6)", "value": "0 n (%)"},
      {"measurement": "Pulmonary embolism (drug related AE, Grade 3 and 4)", "setting": "Arm A QD 1.2 mg (N = 6)", "value": "0 n (%)"},
      {"measurement": "Rash (drug related AE, all grades)", "setting": "Arm A QD 1.2 mg (N = 6)", "value": "3 (50) n (%)"},
      {"measurement": "Rash maculopapular (drug related AE, all grades)", "setting": "Arm A QD 1.2 mg (N = 6)", "value": "0 n (%)"},
      {"measurement": "Sinusitis (drug related AE, all grades)", "setting": "Arm A QD 1.2 mg (N = 6)", "value": "1 (17) n (%)"},
      {"measurement": "Urticaria (drug related AE, Grade 3 and 4)", "setting": "Arm A QD 1.2 mg (N = 6)", "value": "0 n (%)"},
      {"measurement": "Vision blurred (drug related AE, all grades)", "setting": "Arm A QD 1.2 mg (N = 6)", "value": "0 n (%)"},
      {"measurement": "Vomiting (drug related AE, Grade 3 and 4)", "setting": "Arm A QD 1.2 mg (N = 6)", "value": "0 n (%)"},
      {"measurement": "Vomiting (drug related AE, all grades)", "setting": "Arm A QD 1.2 mg (N = 6)", "value": "2 (33) n (%)"},
      {"measurement": "Weight decreased (drug related AE, all grades)", "setting": "Arm A QD 1.2 mg (N = 6)", "value": "1 (17) n (%)"},
      {"measurement": "Description of DLT", "setting": "Arm A QD 1.5 mg", "value": "Gr 3 nausea; also recorded: G3 nausea"},
      {"measurement": "Description of study drug toxicity that led to treatment discontinuation", "setting": "Arm A QD 1.5 mg", "value": "G3 Nausea concurrent with G2 diarrhoea (N = 1); also recorded: G2 Dermatitis acneiform (N = 1)"},
      {"measurement": "Abdominal distension (drug related AE, all grades)", "setting": "Arm A QD 1.5 mg (N = 7)", "value": "1 (14) n (%)"},
      {"measurement": "Abdominal pain (drug related AE, Grade 3 and 4)", "setting": "Arm A QD 1.5 mg (N = 7)", "value": "1 (14) n (%)"},
      {"measurement": "Abdominal pain (drug related AE, all grades)", "setting": "Arm A QD 1.5 mg (N = 7)", "value": "1 (14) n (%)"},
      {"measurement": "Blood creatinine increased (drug related AE, all grades)", "setting": "Arm A QD 1.5 mg (N = 7)", "value": "0 n (%)"},
      {"measurement": "Colitis (drug related AE, Grade 3 and 4)", "setting": "Arm A QD 1.5 mg (N = 7)", "value": "0 n (%)"},
      {"measurement": "Cough (drug related AE, Grade 3 and 4)", "setting": "Arm A QD 1.5 mg (N = 7)", "value": "0 n (%)"},
      {"measurement": "Cough (drug related AE, all grades)", "setting": "Arm A QD 1.5 mg (N = 7)", "value": "2 (29) n (%)"},
      {"measurement": "Decreased Appetite (drug related AE, Grade 3 and 4)", "setting": "Arm A QD 1.5 mg (N = 7)", "value": "0 n (%)"},
      {"measurement": "Decreased Appetite (drug related AE, all grades)", "setting": "Arm A QD 1.5 mg (N = 7)", "value": "1 (14) n (%)"},
      {"measurement": "Dehydration (drug related AE, Grade 3 and 4)", "setting": "Arm A QD 1.5 mg (N = 7)", "value": "0 n (%)"},
      {"measurement": "Dehydration (drug related AE, all grades)", "setting": "Arm A QD 1.5 mg (N = 7)", "value": "0 n (%)"},
      {"measurement": "Dermatitis acneiform (drug related AE, all grades)", "setting": "Arm A QD 1.5 mg (N = 7)", "value": "4 (57) n (%)"}
    ]}
  ]
}
